According to patent US11584800B2, “Method of treating cancer comprising administration of anti-HER2 antibody-drug conjugate” (DAIICHI SANKYO COMPANY, LIMITED, priority 2014, dated 2023):

How the values were obtained:
[1] = Self-degradation of aminal structure of released drug derivative; type: physicochemical
[2] = system: Human breast cancer line JIMT-1 cells; assay: Antitumor test (3), JIMT-1 subcutaneous transplant in nude mice; type: in vivo, nude mouse; details: 10 mg/kg intravenously on Days 12 and 19; FIG. 5
Experimental: (§2) Assay and calculation expression: In all studies, the major axis and minor axis of a tumor were measured twice a week by using an electronic digital caliper (CD-15CX, Mitutoyo Corp.), and the tumor volume (mm^3) was calculated. The calculation expression is as shown below. Tumor volume(mm^3)=½×Major axis (mm)×[Minor axis (mm)]^2
(§3) All of the antibody-drug conjugates and the antibody were diluted with physiological saline (Otsuka Pharmaceutical Factory, Inc.) and used at a volume of 10 mL/kg for intravenous administration to the tail vein of each mouse.
Human breast cancer line JIMT-1 cells purchased from DSMZ (Deutsche Sammlung von Mikroorganismen und Zellkulturen GmbH) were suspended in physiological saline, and 3×10^6 cells were subcutaneously transplanted to the right side of the body of each female nude mouse (Day 0), and the mice were randomly grouped on Day 12. […] A physiological saline administration group was established as a control group.

[3] = system: esophageal cancer CTG-0137 tumor highly expressing HER2; assay: Antitumor test (11), patient-derived esophageal cancer CTG-0137 in nude mice; type: in vivo, nude mouse; details: 10 mg/kg intravenously on Day 0; HER2 score 3+; FIG. 13
Experimental: (§1) Assay and calculation expression: The major axis and minor axis of tumor were measured twice a week by using an electronic digital caliper, and the tumor volume (mm^3) was calculated. The calculation expression is as shown below.

[4] = system: breast cancer ST225 tumor moderately expressing HER2; assay: Antitumor test (6), patient-derived breast cancer ST225 in nude mice; type: in vivo, nude mouse; details: 10 mg/kg intravenously on Day 0; HER2 score 2+; FIG. 8
Experimental: as §1

[5] = system: breast cancer ST910 tumor low expressing HER2; assay: Antitumor test (7), patient-derived breast cancer ST910 in nude mice; type: in vivo, nude mouse; details: 10 mg/kg intravenously on Day 0; HER2 score 1+; FIG. 9
Experimental: as §1

[6] = system: Human gastric cancer line NCI-N87 cells; assay: Antitumor test (2), NCI-N87 subcutaneous transplant in nude mice; type: in vivo, nude mouse; details: 10 mg/kg intravenously on Day 7; FIG. 4
Experimental: Mouse: 5- to 6-week-old female nude mice (Charles River Laboratories Japan, Inc.) were acclimatized for 4 to 7 days under SPF conditions before use in the experiment. The mice were fed with sterilized solid feed (FR-2, Funabashi Farms Co., Ltd) and given sterilized tap water (prepared by the addition of 5 to 15 ppm sodium hypochlorite solution). Assay and calculation expression: In all studies, the major axis and minor axis of a tumor were measured twice a week by using an electronic digital caliper ([…] Corp.), and the tumor volume (mm^3) was calculated. The calculation expression is as shown below. […] Human gastric cancer line NCI-N87 cells purchased from ATCC (American Type Culture Collection) were suspended in physiological saline, and 1×10^7 cells were subcutaneously transplanted to the right side of the body of each female nude mouse (Day 0), and the mice were randomly grouped on Day 7. […] An untreated group was established as a control group.

[7] = system: colorectal cancer CTG-0401 tumor low or moderately expressing HER2; assay: Antitumor test (8), patient-derived colorectal cancer CTG-0401 in nude mice; type: in vivo, nude mouse; details: 10 mg/kg intravenously on Day 0; HER2 score 1+ or 2+; FIG. 10
Experimental: as §1

[8] = system: non-small cell lung cancer CTG-0860 tumor moderately expressing HER2; assay: Antitumor test (9), patient-derived non-small cell lung cancer CTG-0860 in nude mice; type: in vivo, nude mouse; details: 10 mg/kg intravenously on Day 0; HER2 score 2+; FIG. 11
Experimental: as §1

[9] = system: Human ovarian cancer line SK-OV-3 cells highly expressing HER2; assay: Antitumor test (12), SK-OV-3 solid tumor in nude mice; type: in vivo, nude mouse; details: 10 mg/kg intravenously on Day 0, FIG. 14
Experimental: as §2, §3
Human ovarian cancer line SK-OV-3 cells highly expressing HER2 purchased from ATCC were suspended in physiological saline, and 4×10^7 cells were subcutaneously transplanted to the right side of the body of each female nude mouse to prepare SK-OV-3 solid tumor. Thereafter, this solid tumor was maintained at several passages by transplantation to female nude mice and used in this test. […]

[10] = system: bile duct cancer CTG-0927 tumor highly expressing HER2; assay: Antitumor test (10), patient-derived bile duct cancer CTG-0927 in nude mice; type: in vivo, nude mouse; details: 10 mg/kg intravenously on Day 0; HER2 score 3+; FIG. 12
Experimental: as §1

[11] = system: Human pancreatic cancer line Capan-1 cells weakly expressing HER2; assay: Antitumor test (4), Capan-1 solid tumor in nude mice; type: in vivo, nude mouse; details: 10 mg/kg intravenously on Day 20; tumor with low HER2 expression; FIG. 6
Experimental: as §2, §3
Human pancreatic cancer line Capan-1 cells (ATCC) weakly expressing HER2 were suspended in physiological saline, and 4×10^7 cells were subcutaneously transplanted to the right side of the body of each female nude mouse to generate Capan-1 solid tumor. Thereafter, this solid tumor was maintained at several passages by transplantation to female nude mice and used in this test. […]

CC[C@@]1(O)C(=O)OCc2c1cc1n(c2=O)Cc2c-1nc1cc(F)c(C)c3c1c2[C@@H](NC(=O)COCN)CC3 [NH2—CH2—O—CH2—C(═O)—(NH-DX)]
stability of the aminal structure; releases HO—CH2—C(═O)—(NH-DX) [1]: undergoes a self-degradation

trastuzumab emtansine
growth of the JIMT-1 tumor (tumor volume) [2]: did not inhibit the growth of the JIMT-1 tumor
growth of the esophageal cancer CTG-0137 tumor (tumor volume) [3]: remarkably inhibited the growth of the tumor
growth of the breast cancer ST225 tumor (tumor volume) [4]: remarkably inhibited the growth of the tumor
growth of the breast cancer ST910 tumor (tumor volume) [5]: did not inhibit the growth
antitumor effect (tumor volume), NCI-N87 [6]: tumor regression
growth of the colorectal cancer CTG-0401 tumor (tumor volume) [7]: did not inhibit the growth
growth of the non-small cell lung cancer CTG-0860 tumor (tumor volume) [8]: did not inhibit the growth
growth of the SK-OV-3 tumor (tumor volume) [9]: remarkably inhibited the growth of the tumor
growth of the bile duct cancer CTG-0927 tumor (tumor volume) [10]: inhibited the growth of the tumor
growth of the Capan-1 tumor (tumor volume) [11]: did not inhibit the growth of the Capan-1 tumor
